Reference: patent US20240158418A1 (C4 Therapeutics, Inc., priority 2021, published 2024)

Legend:
Assay type in all cases: cell-based
EGFR L858R = EGFR L858R (Homo sapiens, UniProt P00533, L858R); test: EGFR degradation, Total EGFR (L858R-specific) HTRF, NCI-H3255; set-up: NCI-H3255 (harboring EGFR heterozygous L858R mutation); host or cells: NCI-H3255; conditions: Table 9A; NCI-H3255 cells, 6 hours, Total EGFR HTRF; read-out: H3255 EGFR DC50
Procedure, shortened: (§1)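 Cells in RPMI 1640 + 10% FBS treated 6 h at 37°C with compound, 11-point half-log titration from 10 μM top, in duplicate. pY1068 and total EGFR read by HTRF (pan-EGFR antibody for wild-type A431; L858R-specific for mutants); IC50 for phospho inhibition, DC50 for 50% degradation.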

EGFR L858R-T790M = target: T1, EGFR L858R-T790M (Homo sapiens, UniProt P00533, L858R/T790M); test: EGFR degradation, Total EGFR (L858R-specific) HTRF, NCI-H1975; conditions: Table 9A; NCI-H1975 cells, 6 hours, Total EGFR HTRF; read-out: H1975 EGFR DC50
T1 construct: NCI-H1975 (harboring EGFR heterozygous L858R-T790M mutations); host or cells: NCI-H1975
T1 sequence (P00533 25-1210 T790M/L858R): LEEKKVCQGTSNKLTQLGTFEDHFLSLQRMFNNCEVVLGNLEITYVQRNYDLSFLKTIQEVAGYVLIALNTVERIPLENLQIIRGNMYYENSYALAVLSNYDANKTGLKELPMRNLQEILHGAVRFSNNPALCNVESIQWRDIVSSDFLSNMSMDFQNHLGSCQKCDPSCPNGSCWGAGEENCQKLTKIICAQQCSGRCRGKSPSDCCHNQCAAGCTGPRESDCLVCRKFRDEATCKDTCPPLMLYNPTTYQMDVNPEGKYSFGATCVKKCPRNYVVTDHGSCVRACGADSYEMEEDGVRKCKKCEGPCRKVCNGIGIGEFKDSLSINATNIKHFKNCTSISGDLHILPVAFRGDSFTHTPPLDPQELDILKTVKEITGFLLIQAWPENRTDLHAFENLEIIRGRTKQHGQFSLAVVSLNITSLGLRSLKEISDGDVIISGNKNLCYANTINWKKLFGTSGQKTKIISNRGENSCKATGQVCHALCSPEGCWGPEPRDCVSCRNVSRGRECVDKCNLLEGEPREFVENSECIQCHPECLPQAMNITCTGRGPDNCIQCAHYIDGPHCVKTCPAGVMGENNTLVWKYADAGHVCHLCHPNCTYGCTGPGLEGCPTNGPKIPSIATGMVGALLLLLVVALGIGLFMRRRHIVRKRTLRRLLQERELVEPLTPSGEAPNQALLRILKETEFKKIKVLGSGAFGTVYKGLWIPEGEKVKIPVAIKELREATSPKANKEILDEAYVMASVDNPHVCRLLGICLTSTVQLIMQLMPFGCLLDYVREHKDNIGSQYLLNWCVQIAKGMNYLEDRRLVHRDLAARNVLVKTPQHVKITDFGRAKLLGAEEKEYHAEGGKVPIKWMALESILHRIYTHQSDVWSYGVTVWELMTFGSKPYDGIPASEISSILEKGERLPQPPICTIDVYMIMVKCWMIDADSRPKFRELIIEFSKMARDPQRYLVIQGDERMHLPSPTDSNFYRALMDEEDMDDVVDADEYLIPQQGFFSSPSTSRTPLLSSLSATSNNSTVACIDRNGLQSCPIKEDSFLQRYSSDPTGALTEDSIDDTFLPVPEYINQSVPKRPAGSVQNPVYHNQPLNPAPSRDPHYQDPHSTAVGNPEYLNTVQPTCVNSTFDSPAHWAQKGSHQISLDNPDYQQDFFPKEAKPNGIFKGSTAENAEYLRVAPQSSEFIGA
Procedure, shortened: as §1

EGFR L858R-T790M-C797S = target: T2, EGFR L858R-T790M-C797S (Homo sapiens, UniProt P00533, C797S/L858R/T790M); test: EGFR degradation, Total EGFR (L858R-specific) HTRF, NCI-H1975+CS; conditions: Table 9A; NCI-H1975+CS cells, 6 hours, Total EGFR HTRF; read-out: H1975+ CS EGFR DC50
T2 construct: generated using CRISPR technology to introduce the additional C797S mutation by Horizon Discovery; host or cells: NCI-H1975+CS (CRISPR knock-in of C797S)
T2 sequence (P00533 25-1210 T790M/C797S/L858R): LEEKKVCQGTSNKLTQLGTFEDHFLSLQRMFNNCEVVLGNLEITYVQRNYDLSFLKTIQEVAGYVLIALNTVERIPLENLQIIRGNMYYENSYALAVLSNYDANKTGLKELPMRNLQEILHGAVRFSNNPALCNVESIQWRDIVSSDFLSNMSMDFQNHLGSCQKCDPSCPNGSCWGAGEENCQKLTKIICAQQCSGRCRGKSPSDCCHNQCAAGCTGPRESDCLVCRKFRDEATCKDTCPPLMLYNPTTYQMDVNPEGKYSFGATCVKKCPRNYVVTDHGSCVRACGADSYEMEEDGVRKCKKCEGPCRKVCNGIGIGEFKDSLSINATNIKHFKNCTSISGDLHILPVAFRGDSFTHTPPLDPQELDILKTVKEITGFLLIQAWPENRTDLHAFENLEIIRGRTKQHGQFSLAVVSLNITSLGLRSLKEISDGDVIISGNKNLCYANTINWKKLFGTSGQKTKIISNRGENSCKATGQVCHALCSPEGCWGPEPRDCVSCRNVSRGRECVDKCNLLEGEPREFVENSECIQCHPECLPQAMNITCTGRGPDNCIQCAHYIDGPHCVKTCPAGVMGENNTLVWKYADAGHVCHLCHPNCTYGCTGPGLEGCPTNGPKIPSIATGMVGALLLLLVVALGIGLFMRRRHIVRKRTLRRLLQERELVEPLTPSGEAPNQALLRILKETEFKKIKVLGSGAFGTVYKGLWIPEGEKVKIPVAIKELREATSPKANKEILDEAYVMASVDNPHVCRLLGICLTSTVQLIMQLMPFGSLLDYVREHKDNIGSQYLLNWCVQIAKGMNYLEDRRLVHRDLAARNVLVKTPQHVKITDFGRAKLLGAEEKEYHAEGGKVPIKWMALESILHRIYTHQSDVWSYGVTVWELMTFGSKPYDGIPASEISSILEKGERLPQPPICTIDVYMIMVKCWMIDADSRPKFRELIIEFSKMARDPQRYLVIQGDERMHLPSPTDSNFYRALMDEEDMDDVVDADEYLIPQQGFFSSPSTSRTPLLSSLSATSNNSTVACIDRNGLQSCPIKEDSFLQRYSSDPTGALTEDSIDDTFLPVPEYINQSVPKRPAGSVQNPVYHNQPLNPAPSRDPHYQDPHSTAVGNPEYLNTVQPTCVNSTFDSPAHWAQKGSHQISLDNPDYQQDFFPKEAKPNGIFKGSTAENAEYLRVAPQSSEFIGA
Description: NCI-H1975 (harboring EGFR heterozygous L858R-T790M mutations) and NCI-H3255 (harboring EGFR heterozygous L858R mutation) were purchased from ATCC and NCI, respectively. NCI-H1975+CS (harboring EGFR heterozygous L858R-T790M-C797S mutations) was generated using CRISPR technology to introduce the additional C797S mutation by Horizon Discovery. A431 (harboring EGFR wildtype) was purchased from ATCC. RPMI 1640 no-phenol red medium and fetal bovine serum (FBS) were purchased from Gibco (Grand Island, NY, USA). Cell culture flasks and 384-well microplates were acquired from VWR (Radnor, PA, USA). Phosphorylated (pY1068) EGFR and Total EGFR (using L858R-specific detection antibody and pan-EGFR antibody for EGFR mutant cell lines and EGFR wild-type cell lines, respectively) HTRF assay kits were purchased from Cisbio (Bedford, MA, USA).
Degradation of EGFR protein containing L858R mutation or wild-type was determined based on quantification of FRET signal using a Total EGFR (L858R-specific or pan-EGFR detecting) HTRF assay kit. Phospho-EGFR (pEGFR) inhibition was determined based on quantification of FRET signal using a pY1068 EGFR HTRF assay kit. In separate assay plates, test compounds were added to the 384-well plate from a top concentration of 10 μM with 11 points, half log titration in duplicates. For each assay, 12.5 uL of cells suspended in assay media (RPMI 1640 no-phenol red medium+10% FBS) at cell densities indicated for each cell line in Table 8 below were dispensed using a multi-channel pipette to 384-well low volume white HTRF microplates containing a duplicate concentration range of test compounds and DMSO controls. The plates were kept at 37° C. with 5% CO2 for 6 hours and then incubated with either phospho EGFR or Total EGFR HTRF detection antibodies according to the cell line and EGFR mutant being assayed. Cells treated in the absence of the test compound were the negative control. Positive control was set by wells containing all reagents but no cells. FRET signal was acquired on EnVision™ Multilabel Reader (PerkinElmer, Santa Clara, CA, USA). Compound concentration that achieves 50% degradation and inhibition was reported as DC50 and IC50, respectively.

Sequence of EGFR L858R (P00533 25-1210 L858R): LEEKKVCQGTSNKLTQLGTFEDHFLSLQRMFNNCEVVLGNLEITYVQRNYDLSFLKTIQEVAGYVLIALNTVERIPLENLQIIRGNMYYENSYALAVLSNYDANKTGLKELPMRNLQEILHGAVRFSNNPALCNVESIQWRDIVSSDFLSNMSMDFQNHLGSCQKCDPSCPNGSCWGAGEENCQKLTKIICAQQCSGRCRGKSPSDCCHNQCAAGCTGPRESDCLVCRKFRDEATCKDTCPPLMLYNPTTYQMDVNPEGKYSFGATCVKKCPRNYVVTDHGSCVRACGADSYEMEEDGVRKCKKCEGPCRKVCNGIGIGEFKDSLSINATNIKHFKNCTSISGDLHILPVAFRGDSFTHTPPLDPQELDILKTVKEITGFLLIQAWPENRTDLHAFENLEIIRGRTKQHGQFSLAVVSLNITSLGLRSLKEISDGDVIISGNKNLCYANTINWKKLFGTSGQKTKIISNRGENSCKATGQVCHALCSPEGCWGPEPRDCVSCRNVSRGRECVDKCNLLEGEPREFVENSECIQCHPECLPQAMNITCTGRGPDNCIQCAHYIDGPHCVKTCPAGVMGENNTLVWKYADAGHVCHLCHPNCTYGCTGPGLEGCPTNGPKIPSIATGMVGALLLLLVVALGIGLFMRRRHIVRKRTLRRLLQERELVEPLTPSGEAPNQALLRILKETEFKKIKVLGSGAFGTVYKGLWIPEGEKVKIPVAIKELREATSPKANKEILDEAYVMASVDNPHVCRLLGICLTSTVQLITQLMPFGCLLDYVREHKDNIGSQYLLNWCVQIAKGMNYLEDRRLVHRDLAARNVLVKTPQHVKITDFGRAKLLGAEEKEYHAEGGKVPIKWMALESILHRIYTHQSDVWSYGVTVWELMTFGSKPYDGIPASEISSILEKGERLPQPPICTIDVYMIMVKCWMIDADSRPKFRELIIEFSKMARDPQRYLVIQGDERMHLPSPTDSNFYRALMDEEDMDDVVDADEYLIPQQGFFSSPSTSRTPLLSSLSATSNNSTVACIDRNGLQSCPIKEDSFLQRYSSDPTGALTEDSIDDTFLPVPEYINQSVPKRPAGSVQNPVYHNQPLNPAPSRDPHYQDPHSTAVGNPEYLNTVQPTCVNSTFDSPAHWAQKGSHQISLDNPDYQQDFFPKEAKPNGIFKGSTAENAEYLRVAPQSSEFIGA

Structure (SMILES) | DC50 (EGFR L858R) [nM] | DC50 (EGFR L858R-T790M) [nM] | DC50 (EGFR L858R-T790M-C797S) [nM]
O=C1CC[C@H](Nc2ccc(C3CCN(CC(=O)N4CCC(Oc5ccc(-c6cc(F)c7c(c6)C(=O)N(C(C(=O)Nc6nccs6)c6ncn8c6CCC8)C7)cc5)CC4)CC3)cc2)C(=O)N1 (stereo partly drawn) [Compound 32, 2-(6,7-dihydro-5H-pyrrolo[1,2-c]imidazol-1-yl)-2-[6-[4-[[1-[2-[4-[4-[[(3S)-2,6-dioxo-3-piperidyl]amino]phenyl]-1-piperidyl]acetyl]-4-piperidyl]oxy]phenyl]-4-fluoro-1-oxo-isoindolin-2-yl]-N-thiazol-2-yl-acetamide] | < 50 | < 50 | < 50
O=C1CC[C@@H](Nc2ccc(C3CCN(CC(=O)N4CCC(Oc5ccc(-c6cc(F)c7c(c6)C(=O)N(C(C(=O)Nc6nccs6)c6ncn8c6CCC8)C7)cc5)CC4)CC3)cc2)C(=O)N1 (stereo partly drawn) [Compound 33, 2-(6,7-dihydro-5H-pyrrolo[1,2-c]imidazol-1-yl)-2-[6-[4-[[1-[2-[4-[4-[[(3R)-2,6-dioxo-3-piperidyl]amino]phenyl]-1-piperidyl]acetyl]-4-piperidyl]oxy]phenyl]-4-fluoro-1-oxo-isoindolin-2-yl]-N-thiazol-2-yl-acetamide] | < 50 | < 50 | < 50
O=C1CCC(Nc2ccc(C3CCN(CC(=O)N4CCC(Oc5ccc(-c6cc(F)c7c(c6)C(=O)N(C(C(=O)Nc6nccs6)c6ncn8c6CCC8)C7)cc5)CC4)CC3)cc2F)C(=O)N1 (stereo not drawn) [Compound 34, 2-(6,7-dihydro-5H-pyrrolo[1,2-c]imidazol-1-yl)-2-(6-(4-((1-(2-(4-(4-((2,6-dioxopiperidin-3-yl)amino)-3-fluorophenyl)piperidin-1-yl)acetyl)piperidin-4-yl)oxy)phenyl)-4-fluoro-1-oxoisoindolin-2-yl)-N-(thiazol-2-yl)acetamide] | < 50 | 50 to 150 | < 50
O=C1CCC(Nc2ccc(C3CCN(CC(=O)N4CCC(Oc5ccc(-c6cc(F)c7c(c6)C(=O)N(C(C(=O)Nc6nccs6)c6ncn8c6CCC8)C7)cc5)CC4)CC3)c(F)c2)C(=O)N1 (stereo not drawn) [Compound 35, 2-(6,7-dihydro-5H-pyrrolo[1,2-c]imidazol-1-yl)-2-(6-(4-((1-(2-(4-(4-((2,6-dioxopiperidin-3-yl)amino)-2-fluorophenyl)piperidin-1-yl)acetyl)piperidin-4-yl)oxy)phenyl)-4-fluoro-1-oxoisoindolin-2-yl)-N-(thiazol-2-yl)acetamide] | < 50 | < 50 | < 50
N#Cc1cc(NC2CCC(=O)NC2=O)ccc1C1CCN(CC(=O)N2CCC(Oc3ccc(-c4cc(F)c5c(c4)C(=O)N(C(C(=O)Nc4nccs4)c4ncn6c4CCC6)C5)cc3)CC2)CC1 (stereo not drawn) [Compound 37] | < 50 | < 50 | < 50
O=C1CC[C@H](Nc2ccc(C3CCN(CC(=O)N4CCN(c5ccc(-c6cc(F)c7c(c6)C(=O)N(C(C(=O)Nc6nccs6)c6ncn8c6C[C@@H](F)C8)C7)cc5)CC4)CC3)c(F)c2)C(=O)N1 (stereo partly drawn) [Compound 44, 2-[6-[4-[4-[2-[4-[4-[[(3S)-2,6-dioxo-3-piperidyl]amino]-2-fluoro-phenyl]-1-piperidyl]acetyl]piperazin-1-yl]phenyl]-4-fluoro-1-oxo-isoindolin-2-yl]-2-[(6R)-6-fluoro-6,7-dihydro-5H-pyrrolo[1,2-c]imidazol-1-yl]-N-thiazol-2-yl-acetamide] | < 50 | < 50 | < 50
O=C1CCC(Nc2ccc(C3CCN(CC(=O)N4CC5(C4)CN(c4ccc(-c6cc(F)c7c(c6)C(=O)N(C(C(=O)Nc6nccs6)c6ncn8c6CCC8)C7)cc4)C5)CC3)cc2)C(=O)N1 (stereo not drawn) [Compound 47, 2-(6,7-dihydro-5H-pyrrolo[1,2-c]imidazol-1-yl)-2-[6-[4-[2-[2-[4-[4-[(2,6-dioxo-3-piperidyl)amino]phenyl]-1-piperidyl]acetyl]-2,6-diazaspiro[3.3]heptan-6-yl]phenyl]-4-fluoro-1-oxo-isoindolin-2-yl]-N-thiazol-2-yl-acetamide] | < 50 | < 50 | < 50
O=C1CC[C@H](Nc2ccc(C3CCN(CC(=O)N4CC5(C4)CN(c4ccc(-c6cc(F)c7c(c6)C(=O)N(C(C(=O)Nc6nccs6)c6ncn8c6CCC8)C7)cc4)C5)CC3)c(F)c2)C(=O)N1 (stereo partly drawn) [Compound 48, 2-(6,7-dihydro-5H-pyrrolo[1,2-c]imidazol-1-yl)-2-[6-[4-[2-[2-[4-[4-[[(3S)-2,6-dioxo-3-piperidyl]amino]-2-fluoro-phenyl]-1-piperidyl]acetyl]-2,6-diazaspiro[3.3]heptan-6-yl]phenyl]-4-fluoro-1-oxo-isoindolin-2-yl]-N-thiazol-2-yl-acetamide] | < 50 | < 50 | < 50
O=C1CCC(Nc2ccc(C3CCN(CC(=O)N4CCN(c5ccc(-c6cc(F)c7c(c6)C(=O)N(C(C(=O)Nc6nccs6)c6ncn8c6CCC8)C7)cc5)CC4)CC3)cc2)C(=O)N1 (stereo not drawn) [Compound 55, 2-(6,7-dihydro-5H-pyrrolo[1,2-c]imidazol-1-yl)-2-[6-[4-[4-[2-[4-[4-[(2,6-dioxo-3-piperidyl)amino]phenyl]-1-piperidyl]acetyl]piperazin-1-yl]phenyl]-4-fluoro-1-oxo-isoindolin-2-yl]-N-thiazol-2-yl-acetamide] | < 50 | < 50 | < 50
O=C1CC[C@H](Nc2ccc(C3CCN(CC(=O)N4CCN(c5ccc(-c6cc(F)c7c(c6)C(=O)N(C(C(=O)Nc6nccs6)c6ncn8c6CCC8)C7)cc5)CC4)CC3)cc2)C(=O)N1 (stereo partly drawn) [Compound 56, 2-(6,7-dihydro-5H-pyrrolo[1,2-c]imidazol-1-yl)-2-[6-[4-[4-[2-[4-[4-[[(3S)-2,6-dioxo-3-piperidyl]amino]phenyl]-1-piperidyl]acetyl]piperazin-1-yl]phenyl]-4-fluoro-1-oxo-isoindolin-2-yl]-N-thiazol-2-yl-acetamide] | < 50 | < 50 | < 50
O=C1CCC(Nc2ccc(C3CCN(CC(=O)N4CCN(Cc5ccc(-c6cc(F)c7c(c6)C(=O)N(C(C(=O)Nc6nccs6)c6ncn8c6CCC8)C7)cc5)CC4)CC3)c(F)c2)C(=O)N1 (stereo not drawn) [Compound 57, 2-(6,7-dihydro-5H-pyrrolo[1,2-c]imidazol-1-yl)-2-[6-[4-[[4-[2-[4-[4-[(2,6-dioxo-3-piperidyl)amino]-2-fluoro-phenyl]-1-piperidyl]acetyl]piperazin-1-yl]methyl]phenyl]-4-fluoro-1-oxo-isoindolin-2-yl]-N-thiazol-2-yl-acetamide] | < 50 | < 50 | < 50
O=C1CC[C@H](Nc2ccc(C3CCN(CC(=O)N4CCN(Cc5ccc(-c6cc(F)c7c(c6)C(=O)N(C(C(=O)Nc6nccs6)c6ncn8c6CCC8)C7)cc5)CC4)CC3)c(F)c2)C(=O)N1 (stereo partly drawn) [Compound 58, 2-(6,7-dihydro-5H-pyrrolo[1,2-c]imidazol-1-yl)-2-[6-[4-[[4-[2-[4-[4-[[(3S)-2,6-dioxo-3-piperidyl]amino]-2-fluoro-phenyl]-1-piperidyl]acetyl]piperazin-1-yl]methyl]phenyl]-4-fluoro-1-oxo-isoindolin-2-yl]-N-thiazol-2-yl-acetamide] | < 50 | < 50 | < 50
